Publication PMC12406196, “Anticoronavirus Activity of Uridine Glycoconjugates Containing a 1,2,3-Triazole Moiety” (Journal of Medicinal Chemistry, 2025)
Entries after “also recorded” stand apart in the source; their conditions may differ. Read-outs that look alike come from different tables or passages of the source.

Assays:
[1] = MTS-based cell viability assay in LR7 cells; parameters: species or system mouse; conditions: mouse, LR7 cells, 48 h, 0–100 μM, read-out: CC50 (MHV block)
Procedure: (§1) LR7, LLC-Mk2 or Vero cells were seeded in 96-well plates and cultured overnight. Next, the medium was changed to a new one supplemented with different concentrations (in triplicate) of analyzed compounds. Following the 2 days (LR7 and Vero) or 4 days (LLC-Mk-2) of incubation, CellTiter 96 AQueous nonradioactive cell proliferation assay (Promega) was performed according to the manufacturer’s instruction. The half-maximal cytotoxic concentration (CC50) was calculated as the concentration of a compound needed to reduce cell viability by 50% using GraphPad Prism software (version 5.01, GraphPad Software, San Diego, CA).

LR7 cells = test: MTS-based cell viability assay in LR7 cells; parameters: species or system mouse; conditions: 50 μM, uninfected LR7 cells
Procedure: as §1

[2] = MTS-based cell viability assay in LLC-Mk2 cells; conditions: Macaca mulatta, read-out: CC50 (HCoV-NL63 block)
Procedure: as §1

[3] = MTS-based cell viability assay in Vero cells; conditions: African green monkey, 96 h per table footnote, read-out: CC50 (SARS-CoV-2 block)
Procedure: as §1

[4] = test system: murine hepatitis virus strain A59 (MHV); test: Reduction of MHV cytopathic effect (CPE) in LR7 cells, MTS/PMS readout; type: cell-based; conditions: for protection against MHV-induced CPE: 50 μM, MOI 0.01, 24 h; for concentration above which MHV-induced CPE was significantly reduced: MOI 0.01, 24 h p.i.
Procedure: LR7 cells were seeded in a 96-well plate and cultured overnight. Next, the cells were infected with MHV at an MOI value of 0.01 in medium without FBS. Following 1 h of incubation, the medium containing the virus was collected and cells were covered with a medium supplemented with different concentrations (in triplicate) of the analyzed compounds or DMSO. 24 h p.i. cells viability was evaluated by CellTiter 96 AQueous nonradioactive cell proliferation assay (Promega) according to the manufacturer’s instruction.

[5] = test system: murine hepatitis virus strain A59 (MHV); test: MHV titer in medium of infected LR7 cells, plaque assay; type: cell-based; conditions: for IC50: Murine coronavirus, read-out: IC50 (MHV)
Procedure: LR7 or LLC-Mk2 cells were infected at a MOI of 0.01 with MHV and HCoV-NL63, respectively, and treated with selected compounds at a concentration ranging from 0 to 50 μM. Culture supernatants were collected 1 day (MHV) or 4 days (HCoV-NL63) after infection. Virus titer was determined by plaque assay.
(§2) The half-maximum inhibitory concentration value (IC50) indicating the concentration of compound needed to reduce virus titer by 50% in comparison to the control, was evaluated by GraphPad software (version 5.01, GraphPad Software, San Diego, CA).

[6] = test system: human coronavirus strain NL63 (HCoV-NL63); test: HCoV-NL63 N protein expression in LLC-Mk2 cells, Western blot and densitometry; type: cell-based; conditions: for HCoV-NL63 N protein level: 50 μM, MOI 0.01, 4 days p.i., Western blot/densitometry
Procedure: LLC-Mk2 monolayers grown in 24-well plates were infected with HCoV-NL63 at an MOI value of 0.01 for 2 h. Unbound virus was removed, and cells were cultured in medium supplemented with different concentrations of compounds. Four days postinfection, cells were collected and lysed in CellLyticM Cell Lysis Reagent (Sigma). Following the protein separation by SDS-PAGE and transfer to PVDF membranes, proteins were immunoblotted using specific mouse anti-N NL63 Abs (Eurofins, Spain) or rabbit anti-β-catenin Abs (Santa Cruz), followed by antimouse or antirabbit secondary antibodies conjugated with HRP. Proteins were visualized and analyzed by chemiluminescence using the UVITEC Cambridge Alliance MINI HD detection system. The densitometric analysis of cells treated with 50 μM dose of a panel of glycoconjugates was performed based on three biological replicates of N and β-catenin immunoblots. The N protein levels were expressed as a percentage relative to DMSO-treated infected cells, while β-catenin levels were expressed as a percentage relative to noninfected control cells. The data were presented as the ratio of N/β-catenin for each sample, normalized accordingly.

[7] = test system: human coronavirus strain NL63 (HCoV-NL63); test: HCoV-NL63 titer in medium of infected LLC-Mk2 cells, foci-forming assay; type: cell-based; conditions: for IC50: read-out: IC50 (HCoV-NL63); for antiviral efficacy against HCoV-NL63 compared with compound 24: dose-response 0–25 μM
Procedure: LR7 or LLC-Mk2 cells were infected at a MOI of 0.01 with MHV and HCoV-NL63, respectively, and treated with selected compounds at a concentration ranging from 0 to 50 μM. Culture supernatants were collected 1 day (MHV) or 4 days (HCoV-NL63) after infection. […]
as §2

SARS-CoV-2 = SARS-CoV-2 infectivity in supernatants of infected Vero cells, plaque assay; type: cell-based; conditions: for IC50: read-out: IC50 (SARS-CoV-2)
Procedure: Vero cells were seeded in appropriate plates and allowed to reach an approximately 90% confluence. For infection, 200 μL of viral suspension containing 10^5 pfu (SARS-CoV-2 strain SARS-CoV-2/human/Czech Republic/951/2020) was added to each well and incubated for 2 h at 37 °C to allow virus adsorption. After the incubation, the viral medium was removed, and the wells were washed gently with phosphate-buffered saline (PBS). Test compounds were prepared in serial dilutions to final concentrations of 50, 25, 12.5, 6.25, 3.125, and 0 μM in the medium (DMEM containing 2% FBS). The compounds were added in quadruplicate to the infected cells. The plates were then incubated for 48 h at 37 °C. Following the 48 h treatment period, the supernatants were removed, and plaque assays in Vero E6 cells were performed to assess viral titers. Cells were fixed and stained 4 days after infection to visualize plaques, as described previously.
as §2

[8] = test system: SC-VLP entry into HEK-hACE2 cells; test: SARS-CoV-2 VLP (SC-VLP) internalization assay in HEK-hACE2 cells, luciferase; type: cell-based; conditions: 12.5 μM during SC-VLP production
HCoV-NL63 RNA synthesis = test: HCoV-NL63 RNA level in infected LLC-Mk2 cells, RT-PCR; type: cell-based, human coronavirus NL63; conditions: MOI 0.01, 96 h p.i.
Procedure: LR7 or LLC-Mk2 were cultured in 12-well plate overnight. Next, LR7 cells were infected with MHV at an MOI value of 1 for 1 h or LLC-Mk2 cells were infected with HCoV-NL63 at an MOI value of 0.01 for 2 h. Following removal of unbound virus, cells were cultured with medium supplemented with different concentrations of selected compounds. 8 h p.i. (MHV) or 96 h p.i. (HCoV-NL63) cells were collected and total RNA was isolated by CoV RNA kit (A&A Biotechnology, Poland) according to the manufacturer’s instruction. To evaluate levels of viral RNA in infected cells Qiagen One-Step RT-PCR reaction was performed. Following reverse transcription, the PCR reaction was carried out using primers: F: […], R: […] for amplification of a fragment of HCoV-NL63 genome (position: 26418–26960 bp NC_005831.2) and F: […] and R: […] for amplification of a fragment of MHV genome (position: 30341–30902 bp FJ647225.1). For internal control fragment of β-actin mRNA was reverse transcribed and amplified using primers For: […] and Rev: […].

SARS-CoV-2 replicon = type: cell-based
[9] = LR7, supplementary CSV, decimal comma
[10] = Severe acute respiratory syndrome coronavirus 2, Vero, supplementary CSV, decimal comma
[11] = virus titer released from LR7 cells, MOI 0.01, 24 h p.i., plaque assay
[12] = 96 h, virus titer released from LLC-Mk2 cells, MOI 0.01, 4 days p.i.
[13] = Severe acute respiratory syndrome coronavirus 2, Vero cells, supernatant 48 h after infection, plaque assay

Which CC50 at 48 h [1] does the source give for CC(=O)OC[C@H]1O[C@@H](OCc2cn(C[C@H]3O[C@@H](n4ccc(=O)[nH]c4=O)[C@H](O[Si](C)(C)C(C)(C)C)[C@@H]3O[Si](C)(C)C(C)(C)C)nn2)[C@H](OC(C)=O)[C@@H](OC(C)=O)[C@H]1OC(C)=O [Compound 15, 2′,3′-di-O-tert-Butyldimethylsilyl-5′-deoxy-5′-[4-(2″,3″,4″,6″-tetra-O-acetyl-β-D-galactopyranosyloxymethyl)-1,2-3-triazol-1-yl]-uridine] here?
The CC50 at 48 h was 134 µM.

What about the “reduction of cell viability (cytotoxicity in uninfected cells)” value (LR7 cells) of the same molecule?
The value was 10–30%.

What about the CC50 at 96 h [2] of the same molecule?
Its CC50 at 96 h is 49.8 µM.

What about the CC50 at 96 h [3] of the same molecule?
The CC50 at 96 h was > 100 µM.

What about the “protection against MHV-induced CPE” value [4] of the same molecule?
Its value is “significantly reduced cell death”.

What about the “concentration above which MHV-induced CPE was significantly reduced” value [4] of the same molecule?
Its value is “above 12.5 μM”.

And the IC50 ([5]; LR7, 24 h)?
Its IC50 is 7.6 µM.

What about the IC50 [5, 9] of the same molecule?
Its IC50 is 7.62 µM.

What about the “HCoV-NL63 N protein level” value [6] of the same molecule?
Its value is “significantly reduced; also recorded: No N protein was detected”.

And the IC50 ([7]; LLC-MK2, 96 h)?
The IC50 was 6.8 µM.

And the IC50 ([7]; LLC-MK2, supplementary CSV, decimal comma)?
The IC50 was 6.79 µM.

And the “antiviral efficacy against HCoV-NL63 compared with compound 24” value ([7]; LLC-Mk2 cells)?
Its value is “slightly lower activity”.

And the IC50 (SARS-CoV-2; Severe acute respiratory syndrome coronavirus 2, Vero, 48 h)?
The IC50 was ~27.4 µM.

What about the IC50 (SARS-CoV-2; [10]) of the same molecule?
Its IC50 is 27.4 µM.

What about the “reduction of SC-VLP entry compared with the control” value [8] of the same molecule?
The value was 80%.

And the “concentration that effectively suppressed HCoV-NL63 RNA synthesis” value (HCoV-NL63 RNA synthesis)?
The value was 12.5 µM.

What does the source list for CC(=O)OC[C@H]1O[C@@H](SCn2cc(COC[C@H]3O[C@@H](n4ccc(=O)[nH]c4=O)[C@H](O[Si](C)(C)C(C)(C)C)[C@@H]3O[Si](C)(C)C(C)(C)C)nn2)[C@H](OC(C)=O)[C@@H](OC(C)=O)[C@@H]1OC(C)=O [Compound 24, 2′,3′-di-O-tert-Butyldimethylsilyl-5′-O-[(1-(2″,3″,4″,6″-tetra-O-acetyl-β-D-glucopyranosylthiomethyl)-1,2-3-triazol-4-yl)-methyl]-uridine]?
CC50 at 48 h [1]: > 100 µM; reduction of cell viability (cytotoxicity in uninfected cells) (LR7 cells): 10–30%; CC50 at 96 h [2]: 59.1 µM; CC50 at 96 h [3]: > 100 µM; protection against MHV-induced CPE [4]: significantly reduced cell death; concentration above which MHV-induced CPE was significantly reduced [4]: above 12.5 μM; dose above which no virus was detectable (MHV titer) ([5]; LR7 cells, 24 h p.i., plaque assay): above 6.25 μM; IC50 [5, 11]: 3.7 µM; HCoV-NL63 N protein level [6]: significantly reduced; also recorded: No N protein was detected; dose above which HCoV-NL63 viral protein expression was completely inhibited ([6]; 4 days p.i., immunoblot): above 6.25 μM; IC50 [7, 12]: 3.1 µM; dose above which HCoV-NL63 viral release was completely inhibited ([7]; LLC-Mk2 cells, 4 days p.i., foci-forming assay): above 6.25 μM; IC50 (SARS-CoV-2; [10]): 18.7 µM; IC50 (SARS-CoV-2; [13]): ~18.7 µM; concentration that effectively suppressed HCoV-NL63 RNA synthesis (HCoV-NL63 RNA synthesis): 6.25 µM; inhibition of SARS-CoV-2 replication (replicon) (SARS-CoV-2 replicon): inhibited SARS-CoV-2 replication; also recorded: effectively suppressed SARS-CoV-2 replication; also recorded: partial

What does the source list for CC(=O)OC[C@H]1O[C@@H](SCc2cn(C[C@H]3O[C@@H](n4ccc(=O)[nH]c4=O)[C@H](O[Si](C)(C)C(C)(C)C)[C@@H]3O[Si](C)(C)C(C)(C)C)nn2)[C@H](OC(C)=O)[C@@H](OC(C)=O)[C@@H]1OC(C)=O [Compound 20, 2′,3′-di-O-tert-Butyldimethylsilyl-5′-deoxy-5′-[4-(2″,3″,4″,6″-tetra-O-acetyl-β-D-glucopyranosylthiomethyl)-1,2-3-triazol-1-yl]-uridine]?
CC50 at 48 h [1]: > 100 µM; reduction of cell viability (cytotoxicity in uninfected cells) (LR7 cells): no detectable toxicity; CC50 at 96 h [2]: > 100 µM; CC50 at 96 h [3]: > 100 µM; protection against MHV-induced CPE [4]: significantly reduced cell death; also recorded: nearly eliminating CPE; concentration above which MHV-induced CPE was significantly reduced [4]: above 6.25 μM; IC50 [5, 9]: 11.3 µM; IC50 [5, 11]: 11.3 µM; HCoV-NL63 N protein level [6]: significantly reduced; also recorded: reduction of N, as well as β-catenin levels; IC50 [7, 12]: 5.5 µM; antiviral efficacy against HCoV-NL63 compared with compound 24 ([7]; LLC-Mk2 cells): slightly lower activity; reduction in SARS-CoV-2 viral titers (SARS-CoV-2; 25 μM, Vero cells): highest level of activity; IC50 (SARS-CoV-2; [10]): 16.2 µM; IC50 (SARS-CoV-2; [13]): ~16.2 µM; concentration that effectively suppressed HCoV-NL63 RNA synthesis (HCoV-NL63 RNA synthesis): 6.25 µM; inhibition of SARS-CoV-2 replication (replicon) (SARS-CoV-2 replicon): inhibited SARS-CoV-2 replication; also recorded: effectively suppressed SARS-CoV-2 replication; also recorded: partial
